Read-outs that look alike come from different tables or passages of the source.

The source of these data is US6951843B2, “Peptide derivatives and their pharmaceutically acceptable salts, thereof, processes for preparation of both and use thereof” (priority 2000, dated 2005).

In assay [1] the test system is Arg-gingipain (RGP). Kind of assay: Inhibitory activity against Arg-gingipain (RGP), substrate Z-Phe-Arg-MCA, for comparison. Type of assay: biochemical, Porphyromonas gingivalis. The conditions noted are these: compound concentration 10^−6 mol/l. The method, then:
Enzyme inhibitory activity (%)=[1−(F/F0)]×100
The inhibitory activity against Arg-gingipain (hereinafter referred to as “RGP”) was measured for comparison in a manner similar to the above, by the process described in Journal Biological Chemistry, Vol. 269, 21371-21378 (1994) using Z-Phe-Arg-MCA as a substrate.

Assay [2] addresses Lys-gingipain (KGP) (Porphyromonas gingivalis, UniProt B2RLK2). The method, then:
Measurement of Inhibitory Activity Against KGP
The inhibitory activity against Lys-gingipain (KGP) was measured by the method described in Journal Biochemistry, Vol. 123, 305-312 (1998), using Z-His-Glu-Lys-MCA as a substrate. Specifically, the measurement was carried out in the following manner: 100 μl of 50 mM L-cystein, 200 μl of a 0.1 M sodium phosphate buffer solution (pH 7.5), 20 μl of 12.3 nM KGP solution containing 0.05% “Brij35” (a tradename of Aldrich, polyoxyethylene(23) lauryl ether), 80 μl of distilled water and 100 μl of a dimethyl sulfoxide solution of a compound according to the invention were mixed together, and preincubated at 37° C. for 5 minutes. Thereafter, 500 μl of a 0.1% dimethyl sulfoxide solution containing 20 μM Z-His-Glu-Lys-MCA was added, followed by incubation at 40° C. for 10 minutes. Then, an acetic acid buffer solution (pH 5.0) containing 10 mM iodoacetamide was added to stop the enzyme reaction, and the fluorescence intensity (F) at 460 nm excited at 380 nm was measured. […] The enzyme inhibitory activity (%) was calculated by the following equation. Enzyme inhibitory activity (%)=[1−(F/F0)]×100

On to `CN(NC(=O)CC[C@H](NC(=O)OCc1ccccc1)C(=O)N[C@@H](CCCCN)C(=O)C(=O)NCc1ccccc1)c1ccccc1.Cl.Cl` [Example 49], for which, in assay [1], the “Enzyme inhibitory activity (%) RGP” value is recorded as 0.0%. For the same molecule, the entries for the “Enzyme inhibitory activity (%) KGP” value in assay [2] (compound concentration 10^−6 mol/l) and in assay [2] (compound concentration 10^−9 mol/l) were 100.0% and 99.0%, respectively.
